Experimental data as given in the kinase profiling compilation of Christmann-Franck et al. (2016).

Legend:
Test in all cases: KINOMEscan competition binding
Details in all cases: compound 10.0 µM
[1] = target: PIK3CB (human) (UniProt P42338)
[2] = target: HIPK1 (human) (UniProt Q86Z02)
[3] = target: PTK2B (human) (UniProt Q14289)
[4] = target: MAP3K12 (human) (UniProt Q12852)
[5] = target: CDK14 (human) (UniProt O94921)
[6] = target: BRSK1 (human) (UniProt Q8TDC3)
[7] = target: RIPK4 (human) (UniProt P57078)
Chain of RIPK4 (human) (P57078 whole entry, looked up): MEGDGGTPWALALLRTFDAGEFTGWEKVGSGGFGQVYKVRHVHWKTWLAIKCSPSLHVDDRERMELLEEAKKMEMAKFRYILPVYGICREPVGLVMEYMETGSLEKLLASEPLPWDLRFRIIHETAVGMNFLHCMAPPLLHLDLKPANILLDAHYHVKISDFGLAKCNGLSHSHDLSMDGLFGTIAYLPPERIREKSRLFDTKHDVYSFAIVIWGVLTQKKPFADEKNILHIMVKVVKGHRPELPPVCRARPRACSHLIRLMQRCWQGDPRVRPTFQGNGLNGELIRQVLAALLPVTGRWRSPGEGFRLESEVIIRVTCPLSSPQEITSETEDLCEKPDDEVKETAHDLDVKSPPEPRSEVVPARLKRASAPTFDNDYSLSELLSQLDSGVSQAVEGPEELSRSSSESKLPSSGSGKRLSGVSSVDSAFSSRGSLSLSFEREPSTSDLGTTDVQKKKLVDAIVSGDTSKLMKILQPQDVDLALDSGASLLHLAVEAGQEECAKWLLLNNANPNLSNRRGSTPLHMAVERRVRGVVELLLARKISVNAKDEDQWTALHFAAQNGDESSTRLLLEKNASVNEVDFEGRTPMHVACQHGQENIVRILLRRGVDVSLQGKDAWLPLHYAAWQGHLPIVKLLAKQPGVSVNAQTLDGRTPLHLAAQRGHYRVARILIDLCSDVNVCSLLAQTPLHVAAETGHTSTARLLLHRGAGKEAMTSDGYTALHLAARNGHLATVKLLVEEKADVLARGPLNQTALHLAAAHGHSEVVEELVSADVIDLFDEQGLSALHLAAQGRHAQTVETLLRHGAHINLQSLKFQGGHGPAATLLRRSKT

[8] = target: PTK2 (human) (UniProt Q05397)
Chain of PTK2 (human) (Q05397 whole entry, looked up): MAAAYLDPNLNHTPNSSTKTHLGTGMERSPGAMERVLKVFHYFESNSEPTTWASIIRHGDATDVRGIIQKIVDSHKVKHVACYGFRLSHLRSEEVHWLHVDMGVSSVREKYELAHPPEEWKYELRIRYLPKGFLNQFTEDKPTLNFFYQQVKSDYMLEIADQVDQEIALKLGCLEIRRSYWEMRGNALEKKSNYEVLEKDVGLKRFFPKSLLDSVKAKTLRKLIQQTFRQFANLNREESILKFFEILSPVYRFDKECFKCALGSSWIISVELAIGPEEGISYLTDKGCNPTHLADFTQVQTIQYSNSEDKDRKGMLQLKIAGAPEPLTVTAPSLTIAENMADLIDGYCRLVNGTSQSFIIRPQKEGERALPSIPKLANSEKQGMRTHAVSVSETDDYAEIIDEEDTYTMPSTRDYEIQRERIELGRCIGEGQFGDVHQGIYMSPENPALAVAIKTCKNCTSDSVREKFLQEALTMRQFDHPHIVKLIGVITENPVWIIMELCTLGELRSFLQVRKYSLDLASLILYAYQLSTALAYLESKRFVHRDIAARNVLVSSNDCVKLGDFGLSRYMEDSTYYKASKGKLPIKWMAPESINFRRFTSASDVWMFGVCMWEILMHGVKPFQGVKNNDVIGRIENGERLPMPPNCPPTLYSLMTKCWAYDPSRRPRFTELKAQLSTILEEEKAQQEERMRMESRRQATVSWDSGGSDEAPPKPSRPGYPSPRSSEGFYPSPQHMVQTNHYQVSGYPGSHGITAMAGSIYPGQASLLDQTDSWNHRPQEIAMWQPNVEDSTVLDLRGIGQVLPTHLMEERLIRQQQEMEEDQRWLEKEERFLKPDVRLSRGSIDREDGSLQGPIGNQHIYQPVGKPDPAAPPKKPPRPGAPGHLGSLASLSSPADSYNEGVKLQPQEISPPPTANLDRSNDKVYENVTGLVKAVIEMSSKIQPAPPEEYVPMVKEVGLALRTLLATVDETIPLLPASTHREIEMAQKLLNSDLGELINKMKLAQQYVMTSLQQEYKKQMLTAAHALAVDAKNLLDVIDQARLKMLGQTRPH

[9] = target: RET (human) (UniProt P07949)
[10] = target: STK36 (human) (UniProt Q9NRP7)
[11] = target: CDK19 (human) (UniProt Q9BWU1)
[12] = target: RPS6KA2 KD1 (human) (UniProt Q15349)
[13] = target: CSNK1E (human) (UniProt P49674)
Chain of CSNK1E (human) (P49674 whole entry, looked up): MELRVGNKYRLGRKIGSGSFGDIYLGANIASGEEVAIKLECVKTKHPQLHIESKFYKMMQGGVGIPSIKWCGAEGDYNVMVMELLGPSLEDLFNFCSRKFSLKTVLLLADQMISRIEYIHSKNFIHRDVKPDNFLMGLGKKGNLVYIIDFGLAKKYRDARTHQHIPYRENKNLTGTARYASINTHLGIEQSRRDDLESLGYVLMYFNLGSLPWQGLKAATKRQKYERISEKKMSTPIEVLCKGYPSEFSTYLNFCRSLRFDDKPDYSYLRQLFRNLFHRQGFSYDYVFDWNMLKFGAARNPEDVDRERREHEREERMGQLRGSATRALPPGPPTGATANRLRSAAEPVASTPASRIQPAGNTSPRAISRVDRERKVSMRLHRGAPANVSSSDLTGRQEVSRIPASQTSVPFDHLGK

[14] = target: TXK (human) (UniProt P42681)
[15] = target: LATS1 (human) (UniProt O95835)
[16] = target: RIPK1 (human) (UniProt Q13546)
Chain of RIPK1 (human) (Q13546 whole entry, looked up): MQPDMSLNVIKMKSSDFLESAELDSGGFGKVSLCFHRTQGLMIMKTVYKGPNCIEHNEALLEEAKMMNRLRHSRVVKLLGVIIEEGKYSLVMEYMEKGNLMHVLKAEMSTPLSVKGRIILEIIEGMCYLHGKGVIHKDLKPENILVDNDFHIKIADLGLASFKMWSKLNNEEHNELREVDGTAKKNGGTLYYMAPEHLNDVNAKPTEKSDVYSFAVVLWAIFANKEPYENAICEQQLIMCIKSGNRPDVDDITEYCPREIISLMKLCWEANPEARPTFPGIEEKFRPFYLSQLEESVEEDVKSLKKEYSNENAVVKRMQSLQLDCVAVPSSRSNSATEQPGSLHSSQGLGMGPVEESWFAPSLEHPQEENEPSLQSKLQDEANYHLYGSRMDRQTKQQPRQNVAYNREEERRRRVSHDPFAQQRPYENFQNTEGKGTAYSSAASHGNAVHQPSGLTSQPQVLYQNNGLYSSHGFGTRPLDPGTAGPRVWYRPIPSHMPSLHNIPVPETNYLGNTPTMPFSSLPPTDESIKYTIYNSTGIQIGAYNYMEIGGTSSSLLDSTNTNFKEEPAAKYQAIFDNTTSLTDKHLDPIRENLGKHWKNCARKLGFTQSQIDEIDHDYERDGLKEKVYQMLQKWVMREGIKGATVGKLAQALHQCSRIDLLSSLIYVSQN

[17] = target: SRC (human) (UniProt P12931)
[18] = target: MARK1 (human) (UniProt Q9P0L2)
[19] = target: CDK3 (human) (UniProt Q00526)
[20] = target: STK25 (human) (UniProt O00506)
[21] = target: STK16 (human) (UniProt O75716)
Chain of STK16 (human) (O75716 whole entry, looked up): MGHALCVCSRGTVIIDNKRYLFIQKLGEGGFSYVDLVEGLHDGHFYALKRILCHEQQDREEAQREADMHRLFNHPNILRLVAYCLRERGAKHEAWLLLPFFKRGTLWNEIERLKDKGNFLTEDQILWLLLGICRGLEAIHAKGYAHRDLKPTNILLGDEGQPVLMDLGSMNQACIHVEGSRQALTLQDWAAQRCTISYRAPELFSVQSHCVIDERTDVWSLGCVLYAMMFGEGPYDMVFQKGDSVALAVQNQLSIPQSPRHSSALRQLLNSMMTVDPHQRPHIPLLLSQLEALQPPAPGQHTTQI

[22] = target: GSK3B (human) (UniProt P49841)
[23] = target: RIOK1 (human) (UniProt Q9BRS2)
[24] = target: BLK (human) (UniProt P51451)
[25] = target: PKN2 (human) (UniProt Q16513)
Chain of PKN2 (human) (Q16513 whole entry, looked up): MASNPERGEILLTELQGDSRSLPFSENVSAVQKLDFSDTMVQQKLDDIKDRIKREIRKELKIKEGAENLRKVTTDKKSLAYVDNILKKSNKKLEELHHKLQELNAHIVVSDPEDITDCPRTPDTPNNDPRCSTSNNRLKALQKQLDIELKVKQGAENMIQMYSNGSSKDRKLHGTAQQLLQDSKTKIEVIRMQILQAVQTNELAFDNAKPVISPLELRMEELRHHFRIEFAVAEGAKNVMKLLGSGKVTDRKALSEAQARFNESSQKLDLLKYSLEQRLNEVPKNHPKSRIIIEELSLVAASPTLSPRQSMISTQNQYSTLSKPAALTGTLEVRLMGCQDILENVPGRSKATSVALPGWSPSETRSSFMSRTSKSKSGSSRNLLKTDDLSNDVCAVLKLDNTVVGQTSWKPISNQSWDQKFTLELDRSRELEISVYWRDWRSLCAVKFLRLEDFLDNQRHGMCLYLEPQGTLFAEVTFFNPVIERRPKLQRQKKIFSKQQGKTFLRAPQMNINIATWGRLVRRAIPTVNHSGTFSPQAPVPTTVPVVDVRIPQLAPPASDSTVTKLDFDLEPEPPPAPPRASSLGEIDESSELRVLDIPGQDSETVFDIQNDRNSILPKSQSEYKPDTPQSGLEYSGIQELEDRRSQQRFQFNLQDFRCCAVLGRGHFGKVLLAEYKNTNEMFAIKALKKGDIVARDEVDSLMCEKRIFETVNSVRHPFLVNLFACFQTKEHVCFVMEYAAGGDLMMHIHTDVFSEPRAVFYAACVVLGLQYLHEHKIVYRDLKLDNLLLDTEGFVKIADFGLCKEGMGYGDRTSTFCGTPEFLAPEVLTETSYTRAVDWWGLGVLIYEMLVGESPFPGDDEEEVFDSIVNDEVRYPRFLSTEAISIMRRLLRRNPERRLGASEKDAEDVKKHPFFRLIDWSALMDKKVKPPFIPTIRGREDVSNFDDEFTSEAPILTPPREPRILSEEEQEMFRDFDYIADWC

[26] = target: PLK3 (human) (UniProt Q9H4B4)
[27] = target: JAK1 JH2 pseudokinase (human) (UniProt P23458)
[28] = target: AURKA (human) (UniProt O14965)
[29] = target: PKN1 (human) (UniProt Q16512)
[30] = target: MARK4 (human) (UniProt Q96L34)
[31] = target: FGFR4 (human) (UniProt P22455)
[32] = target: MAPK7 (human) (UniProt Q13164)
[33] = target: TAOK1 (human) (UniProt Q7L7X3)
[34] = target: CSF1R (human) (UniProt P07333)
[35] = target: PIM3 (human) (UniProt Q86V86)
[36] = target: MYLK4 (human) (UniProt Q86YV6)
[37] = target: STK24 (human) (UniProt Q9Y6E0)
[38] = target: SYK (human) (UniProt P43405)
[39] = target: EPHA7 (human) (UniProt Q15375)
[40] = target: RPS6KA2 KD2 (human) (UniProt Q15349)

Chain of BRSK1 (human) (Q8TDC3 whole entry, looked up): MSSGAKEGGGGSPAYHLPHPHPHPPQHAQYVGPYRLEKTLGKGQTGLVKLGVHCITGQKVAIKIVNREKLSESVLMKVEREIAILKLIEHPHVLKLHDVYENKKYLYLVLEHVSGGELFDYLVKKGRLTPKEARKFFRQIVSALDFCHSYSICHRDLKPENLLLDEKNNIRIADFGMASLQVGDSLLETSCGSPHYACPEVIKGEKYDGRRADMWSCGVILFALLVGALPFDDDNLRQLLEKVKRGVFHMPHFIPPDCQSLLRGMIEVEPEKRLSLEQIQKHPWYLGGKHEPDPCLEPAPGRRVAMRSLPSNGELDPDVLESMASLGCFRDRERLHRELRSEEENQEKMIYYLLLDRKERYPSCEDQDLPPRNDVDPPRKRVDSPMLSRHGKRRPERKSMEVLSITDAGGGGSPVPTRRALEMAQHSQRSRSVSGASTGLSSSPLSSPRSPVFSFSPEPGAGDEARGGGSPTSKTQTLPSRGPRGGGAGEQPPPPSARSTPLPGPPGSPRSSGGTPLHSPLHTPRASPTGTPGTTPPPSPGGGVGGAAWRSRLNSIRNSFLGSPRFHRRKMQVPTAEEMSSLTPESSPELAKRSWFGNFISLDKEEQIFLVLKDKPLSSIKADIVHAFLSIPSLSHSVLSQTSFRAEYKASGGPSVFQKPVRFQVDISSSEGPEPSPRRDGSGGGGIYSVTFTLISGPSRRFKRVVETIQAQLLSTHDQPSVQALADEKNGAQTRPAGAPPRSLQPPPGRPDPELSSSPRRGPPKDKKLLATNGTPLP

SMILES	kinase still bound, per cent of control [1] [%]	kinase still bound, per cent of control [2] [%]	kinase still bound, per cent of control [3] [%]	kinase still bound, per cent of control [4] [%]	kinase still bound, per cent of control [5] [%]	kinase still bound, per cent of control [6] [%]	kinase still bound, per cent of control [7] [%]	kinase still bound, per cent of control [8] [%]	kinase still bound, per cent of control [9] [%]	kinase still bound, per cent of control [10] [%]	kinase still bound, per cent of control [11] [%]	kinase still bound, per cent of control [12] [%]	kinase still bound, per cent of control [13] [%]	kinase still bound, per cent of control [14] [%]	kinase still bound, per cent of control [15] [%]	kinase still bound, per cent of control [16] [%]	kinase still bound, per cent of control [17] [%]	kinase still bound, per cent of control [18] [%]	kinase still bound, per cent of control [19] [%]	kinase still bound, per cent of control [20] [%]	further results
C=CC(=O)Nc1cccc(Oc2nc(Nc3ccc(N4CCN(C)CC4)cc3OC)ncc2Cl)c1	100	100	25	100	100	100	100	0.1	100	100	100	16	100	16	100	9.4	100	11	100	100	kinase still bound, per cent of control [21]: 27%; kinase still bound, per cent of control [22]: 100%; kinase still bound, per cent of control [23]: 17%; kinase still bound, per cent of control [24]: 0.75%; kinase still bound, per cent of control [25]: 100%; kinase still bound, per cent of control [26]: 100%; kinase still bound, per cent of control [27]: 100%; kinase still bound, per cent of control [28]: 28%; kinase still bound, per cent of control [29]: 100%; kinase still bound, per cent of control [30]: 16%; kinase still bound, per cent of control [31]: 100%; kinase still bound, per cent of control [32]: 4%; kinase still bound, per cent of control [33]: 100%; kinase still bound, per cent of control [34]: 14%; kinase still bound, per cent of control [35]: 100%; kinase still bound, per cent of control [36]: 24%; kinase still bound, per cent of control [37]: 100%; kinase still bound, per cent of control [38]: 100%; kinase still bound, per cent of control [39]: 100%; kinase still bound, per cent of control [40]: 28%
C[C@@H](Oc1cc(-n2cnc3ccc(CN4CCN(C)CC4)cc32)sc1C(N)=O)c1ccccc1C(F)(F)F	0.8	40	82	57	94	42	52	99	100	98	100	4	100	71	100	100	100	100	100	83	kinase still bound, per cent of control [21]: 65%; kinase still bound, per cent of control [22]: 100%; kinase still bound, per cent of control [23]: 4.4%; kinase still bound, per cent of control [24]: 100%; kinase still bound, per cent of control [25]: 6%; kinase still bound, per cent of control [26]: 3.6%; kinase still bound, per cent of control [27]: 92%; kinase still bound, per cent of control [28]: 100%; kinase still bound, per cent of control [29]: 46%; kinase still bound, per cent of control [30]: 100%; kinase still bound, per cent of control [31]: 100%; kinase still bound, per cent of control [32]: 91%; kinase still bound, per cent of control [33]: 14%; kinase still bound, per cent of control [34]: 77%; kinase still bound, per cent of control [35]: 11%; kinase still bound, per cent of control [36]: 78%; kinase still bound, per cent of control [37]: 81%; kinase still bound, per cent of control [38]: 100%; kinase still bound, per cent of control [39]: 83%; kinase still bound, per cent of control [40]: 74%
CCC(=O)N1CCN(c2ccc(-n3c(=O)ccc4cnc5ccc(-c6cnc7ccccc7c6)cc5c43)cc2C(F)(F)F)CC1	65	63	100	100	99	78	100	14	44	17	1.2	100	59	54	100	1.9	95	100	100	84	kinase still bound, per cent of control [21]: 18%; kinase still bound, per cent of control [22]: 100%; kinase still bound, per cent of control [23]: 81%; kinase still bound, per cent of control [24]: 75%; kinase still bound, per cent of control [25]: 65%; kinase still bound, per cent of control [26]: 87%; kinase still bound, per cent of control [27]: 76%; kinase still bound, per cent of control [28]: 100%; kinase still bound, per cent of control [29]: 92%; kinase still bound, per cent of control [30]: 100%; kinase still bound, per cent of control [31]: 21%; kinase still bound, per cent of control [32]: 100%; kinase still bound, per cent of control [33]: 58%; kinase still bound, per cent of control [34]: 24%; kinase still bound, per cent of control [35]: 96%; kinase still bound, per cent of control [36]: 83%; kinase still bound, per cent of control [37]: 100%; kinase still bound, per cent of control [38]: 78%; kinase still bound, per cent of control [39]: 98%; kinase still bound, per cent of control [40]: 85%
